From ChEMBL document CHEMBL5260810, “Inhibition of bromodomain-containing protein 9 for the prevention of epigenetically-defined drug resistance” (Bioorg Med Chem Lett, 2017)

system: not listed separately; assay: Cytotoxicity against human HNT-34 cells measured after 8 days; type: functional, cell-based; details: HNT-34, 192 h

Structure (SMILES)	IC50
C/C=C/Cn1cc(-c2cc(OC)c(C(=O)N3CCOCC3)cc2OC)c2cc(C)[nH]c2c1=O	540 nM

system: LP-1; assay: Cytotoxicity against human LP-1 cells measured after 8 days; type: functional, cell-based; details: LP-1, 192 h

Structure (SMILES)	IC50
C/C=C/Cn1cc(-c2cc(OC)c(C(=O)N3CCOCC3)cc2OC)c2cc(C)[nH]c2c1=O	2000 nM

system: NCI-H1838; assay: Cytotoxicity against human NCI-H1838 cells measured after 8 days; type: functional, cell-based; details: NCI-H1838, 192 h

Structure (SMILES)	IC50
C/C=C/Cn1cc(-c2cc(OC)c(C(=O)N3CCOCC3)cc2OC)c2cc(C)[nH]c2c1=O	2000 nM

system: NCI-H1666; assay: Cytotoxicity against human NCI-H1666 cells measured after 8 days; type: functional, cell-based; details: NCI-H1666, 192 h

Structure (SMILES)	IC50
C/C=C/Cn1cc(-c2cc(OC)c(C(=O)N3CCOCC3)cc2OC)c2cc(C)[nH]c2c1=O	2000 nM

system: NCI-H146; assay: Cytotoxicity against human NCI-H146 cells measured after 8 days; type: functional, cell-based; details: NCI-H146, 192 h

Structure (SMILES)	IC50
C/C=C/Cn1cc(-c2cc(OC)c(C(=O)N3CCOCC3)cc2OC)c2cc(C)[nH]c2c1=O	2000 nM

system: not listed separately; assay: Cytotoxicity against human MOR cells measured after 8 days; type: functional, cell-based; details: 192 h

Structure (SMILES)	IC50
C/C=C/Cn1cc(-c2cc(OC)c(C(=O)N3CCOCC3)cc2OC)c2cc(C)[nH]c2c1=O	2000 nM

system: not listed separately; assay: Cytotoxicity against human NCI-H2106 cells measured after 8 days; type: functional, cell-based; details: NCI-H2106, 192 h

Structure (SMILES)	IC50
C/C=C/Cn1cc(-c2cc(OC)c(C(=O)N3CCOCC3)cc2OC)c2cc(C)[nH]c2c1=O	2000 nM

system: Raji; assay: Cytotoxicity against human Raji cells measured after 8 days; type: functional, cell-based; details: 192 h

Structure (SMILES)	IC50
C/C=C/Cn1cc(-c2cc(OC)c(C(=O)N3CCOCC3)cc2OC)c2cc(C)[nH]c2c1=O	2000 nM

system: NCI-H522; assay: Cytotoxicity against human NCI-H522 cells measured after 8 days; type: functional, cell-based; details: NCI-H522, 192 h

Structure (SMILES)	IC50
C/C=C/Cn1cc(-c2cc(OC)c(C(=O)N3CCOCC3)cc2OC)c2cc(C)[nH]c2c1=O	2000 nM

system: not listed separately; assay: Cytotoxicity against human VMRC-LCD cells measured after 8 days; type: functional, cell-based; details: 192 h

Structure (SMILES)	IC50
C/C=C/Cn1cc(-c2cc(OC)c(C(=O)N3CCOCC3)cc2OC)c2cc(C)[nH]c2c1=O	2000 nM

system: Granta-519; assay: Cytotoxicity against human Granta-519 cells measured after 8 days; type: functional, cell-based; details: Granta-519, 192 h

Structure (SMILES)	IC50
C/C=C/Cn1cc(-c2cc(OC)c(C(=O)N3CCOCC3)cc2OC)c2cc(C)[nH]c2c1=O	2000 nM

system: MDA-MB-157; assay: Cytotoxicity against human MDA-MB-157 cells measured after 8 days; type: functional, cell-based; details: MDA-MB-157, 192 h

Structure (SMILES)	IC50
C/C=C/Cn1cc(-c2cc(OC)c(C(=O)N3CCOCC3)cc2OC)c2cc(C)[nH]c2c1=O	2000 nM

system: SW948; assay: Cytotoxicity against human SW948 cells measured after 8 days; type: functional, cell-based; details: SW948, 192 h

Structure (SMILES)	IC50
C/C=C/Cn1cc(-c2cc(OC)c(C(=O)N3CCOCC3)cc2OC)c2cc(C)[nH]c2c1=O	2000 nM

system: WiDr; assay: Cytotoxicity against human WiDr cells measured after 8 days; type: functional, cell-based; details: 192 h

Structure (SMILES)	IC50
C/C=C/Cn1cc(-c2cc(OC)c(C(=O)N3CCOCC3)cc2OC)c2cc(C)[nH]c2c1=O	2000 nM

system: SK-MEL-28; assay: Cytotoxicity against human SK-MEL-28 cells measured after 8 days; type: functional, cell-based; details: SK-MEL-28, 192 h

Structure (SMILES)	IC50
C/C=C/Cn1cc(-c2cc(OC)c(C(=O)N3CCOCC3)cc2OC)c2cc(C)[nH]c2c1=O	2000 nM

system: GTL 16 cell line; assay: Cytotoxicity against human GTL 16 cell line measured after 8 days; type: functional, cell-based; details: GTL 16, 192 h

Structure (SMILES)	IC50
C/C=C/Cn1cc(-c2cc(OC)c(C(=O)N3CCOCC3)cc2OC)c2cc(C)[nH]c2c1=O	2000 nM

system: A549; assay: Cytotoxicity against human A549 cells measured after 8 days; type: functional, cell-based; details: A549, 192 h

Structure (SMILES)	IC50
C/C=C/Cn1cc(-c2cc(OC)c(C(=O)N3CCOCC3)cc2OC)c2cc(C)[nH]c2c1=O	2000 nM

system: ABC-1; assay: Cytotoxicity against human ABC-1 cells measured after 8 days; type: functional, cell-based; details: ABC-1, 192 h

Structure (SMILES)	IC50
C/C=C/Cn1cc(-c2cc(OC)c(C(=O)N3CCOCC3)cc2OC)c2cc(C)[nH]c2c1=O	2000 nM

system: BEN; assay: Cytotoxicity against human BEN cells measured after 8 days; type: functional, cell-based; details: 192 h

Structure (SMILES)	IC50
C/C=C/Cn1cc(-c2cc(OC)c(C(=O)N3CCOCC3)cc2OC)c2cc(C)[nH]c2c1=O	2000 nM

system: HCC44; assay: Cytotoxicity against human HCC44 cells measured after 8 days; type: functional, cell-based; details: HCC44, 192 h

Structure (SMILES)	IC50
C/C=C/Cn1cc(-c2cc(OC)c(C(=O)N3CCOCC3)cc2OC)c2cc(C)[nH]c2c1=O	2000 nM

system: HCC827; assay: Cytotoxicity against human HCC827 cells measured after 8 days; type: functional, cell-based; details: HCC827, 192 h

Structure (SMILES)	IC50
C/C=C/Cn1cc(-c2cc(OC)c(C(=O)N3CCOCC3)cc2OC)c2cc(C)[nH]c2c1=O	2000 nM

target: Bromodomain-containing protein 3 (Homo sapiens, UniProt Q15059); assay: Binding affinity to human partial length BRD3 bromodomain 2 (G306 to P416 residues) expressed in bacterial expression system by BROMOscan assay; details: not given
Sequence (Q15059 whole entry, the tested form may be a part): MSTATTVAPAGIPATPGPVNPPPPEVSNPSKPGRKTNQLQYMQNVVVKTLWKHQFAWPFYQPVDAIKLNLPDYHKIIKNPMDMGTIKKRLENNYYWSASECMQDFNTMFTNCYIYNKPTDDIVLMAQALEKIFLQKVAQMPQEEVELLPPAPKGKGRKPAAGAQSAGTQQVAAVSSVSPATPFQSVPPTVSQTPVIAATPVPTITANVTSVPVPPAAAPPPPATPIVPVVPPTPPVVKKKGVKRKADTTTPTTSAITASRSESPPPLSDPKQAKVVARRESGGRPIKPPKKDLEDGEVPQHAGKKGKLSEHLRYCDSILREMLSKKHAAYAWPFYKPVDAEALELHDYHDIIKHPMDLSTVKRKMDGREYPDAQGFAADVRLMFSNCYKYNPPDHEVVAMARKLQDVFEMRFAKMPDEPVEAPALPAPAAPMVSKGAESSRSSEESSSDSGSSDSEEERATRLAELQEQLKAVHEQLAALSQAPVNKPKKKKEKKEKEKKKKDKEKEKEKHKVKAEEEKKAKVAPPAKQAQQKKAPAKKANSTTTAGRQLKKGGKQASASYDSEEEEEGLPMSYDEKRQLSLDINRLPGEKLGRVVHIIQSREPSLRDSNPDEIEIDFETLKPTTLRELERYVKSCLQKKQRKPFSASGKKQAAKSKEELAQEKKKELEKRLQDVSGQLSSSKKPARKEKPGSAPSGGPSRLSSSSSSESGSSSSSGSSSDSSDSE

Structure (SMILES)	Kd
C/C=C/Cn1cc(-c2cc(OC)c(C(=O)N3CCOCC3)cc2OC)c2cc(C)[nH]c2c1=O	> 10000 nM

target: SWI/SNF-related matrix-associated actin-dependent regulator of chromatin subfamily A member 2 (Homo sapiens, UniProt P51531); assay: Binding affinity to human partial length SMARCA2 (S1377 to Q1486 residues) expressed in bacterial expression system by BROMOscan assay; details: not given
Sequence (P51531 whole entry, the tested form may be a part): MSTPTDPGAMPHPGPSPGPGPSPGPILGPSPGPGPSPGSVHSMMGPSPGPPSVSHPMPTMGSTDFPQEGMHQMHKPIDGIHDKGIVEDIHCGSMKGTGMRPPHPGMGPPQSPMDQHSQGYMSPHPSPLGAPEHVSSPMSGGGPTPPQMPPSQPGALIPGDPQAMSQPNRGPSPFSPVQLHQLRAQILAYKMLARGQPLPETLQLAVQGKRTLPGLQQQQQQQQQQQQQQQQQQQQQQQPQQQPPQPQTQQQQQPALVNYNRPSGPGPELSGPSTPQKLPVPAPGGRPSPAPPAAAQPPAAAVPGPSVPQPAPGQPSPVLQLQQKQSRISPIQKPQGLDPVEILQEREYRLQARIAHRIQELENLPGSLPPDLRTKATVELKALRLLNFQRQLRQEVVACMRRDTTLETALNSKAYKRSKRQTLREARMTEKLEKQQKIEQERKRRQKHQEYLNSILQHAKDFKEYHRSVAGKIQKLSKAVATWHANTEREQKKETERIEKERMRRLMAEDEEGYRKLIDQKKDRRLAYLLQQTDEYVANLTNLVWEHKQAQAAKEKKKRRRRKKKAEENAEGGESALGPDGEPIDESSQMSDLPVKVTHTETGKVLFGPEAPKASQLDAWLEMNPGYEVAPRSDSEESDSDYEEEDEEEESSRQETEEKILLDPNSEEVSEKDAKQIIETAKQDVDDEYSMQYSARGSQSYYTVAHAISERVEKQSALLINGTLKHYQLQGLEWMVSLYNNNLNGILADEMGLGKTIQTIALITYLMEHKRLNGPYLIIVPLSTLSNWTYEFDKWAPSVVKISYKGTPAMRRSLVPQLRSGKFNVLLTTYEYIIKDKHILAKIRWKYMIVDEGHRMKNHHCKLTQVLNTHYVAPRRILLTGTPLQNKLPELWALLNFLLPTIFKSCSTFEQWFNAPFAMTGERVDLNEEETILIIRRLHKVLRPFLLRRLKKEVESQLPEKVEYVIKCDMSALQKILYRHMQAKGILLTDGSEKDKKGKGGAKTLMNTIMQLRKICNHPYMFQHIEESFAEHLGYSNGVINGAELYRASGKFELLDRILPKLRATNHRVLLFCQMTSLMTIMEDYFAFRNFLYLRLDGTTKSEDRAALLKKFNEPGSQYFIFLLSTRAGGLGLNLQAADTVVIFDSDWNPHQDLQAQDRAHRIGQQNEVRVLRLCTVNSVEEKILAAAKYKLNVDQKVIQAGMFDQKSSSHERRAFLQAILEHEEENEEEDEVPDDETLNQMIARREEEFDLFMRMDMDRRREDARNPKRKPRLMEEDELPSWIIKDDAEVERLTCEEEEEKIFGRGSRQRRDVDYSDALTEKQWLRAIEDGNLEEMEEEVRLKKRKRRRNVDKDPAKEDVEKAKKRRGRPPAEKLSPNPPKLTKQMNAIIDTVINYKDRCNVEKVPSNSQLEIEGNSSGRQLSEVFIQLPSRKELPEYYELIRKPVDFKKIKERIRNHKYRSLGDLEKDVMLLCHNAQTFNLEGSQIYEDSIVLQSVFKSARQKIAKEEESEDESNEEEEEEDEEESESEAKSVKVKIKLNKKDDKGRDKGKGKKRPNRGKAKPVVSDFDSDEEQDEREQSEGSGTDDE

Structure (SMILES)	Kd
C/C=C/Cn1cc(-c2cc(OC)c(C(=O)N3CCOCC3)cc2OC)c2cc(C)[nH]c2c1=O	> 10000 nM

target: Cyclin-dependent kinase 5/CDK5 activator 1 (Homo sapiens) (UniProt Q00535+Q15078); assay: Inhibition of CDK5/p25 (unknown origin) at 1 uM relative to control; type: protein-complex assay; details: not given
Sequence (Q00535 whole entry): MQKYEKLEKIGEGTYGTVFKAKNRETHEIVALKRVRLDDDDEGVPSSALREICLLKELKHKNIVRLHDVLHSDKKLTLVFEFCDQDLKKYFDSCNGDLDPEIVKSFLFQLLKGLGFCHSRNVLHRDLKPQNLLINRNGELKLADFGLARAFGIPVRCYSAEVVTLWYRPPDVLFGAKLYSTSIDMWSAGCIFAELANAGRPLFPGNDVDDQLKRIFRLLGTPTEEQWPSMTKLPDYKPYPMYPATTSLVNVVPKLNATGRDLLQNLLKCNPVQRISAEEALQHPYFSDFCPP
Sequence (Q15078 99-307 partner limits assumed): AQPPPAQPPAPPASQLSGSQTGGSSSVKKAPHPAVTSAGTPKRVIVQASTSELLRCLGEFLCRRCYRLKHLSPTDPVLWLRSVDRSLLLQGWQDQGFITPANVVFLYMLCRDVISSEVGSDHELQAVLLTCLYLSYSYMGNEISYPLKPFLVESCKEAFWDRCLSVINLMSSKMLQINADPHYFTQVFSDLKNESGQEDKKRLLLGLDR

Structure (SMILES)	inhibition
C/C=C/Cn1cc(-c2cc(OC)c(C(=O)N3CCOCC3)cc2OC)c2cc(C)[nH]c2c1=O	0%

target: T1, Ephrin type-A receptor 1 (Homo sapiens) (UniProt P21709); assay: Inhibition of EphA1 (unknown origin) at 1 uM relative to control; details: not given
T1 sequence (whole entry): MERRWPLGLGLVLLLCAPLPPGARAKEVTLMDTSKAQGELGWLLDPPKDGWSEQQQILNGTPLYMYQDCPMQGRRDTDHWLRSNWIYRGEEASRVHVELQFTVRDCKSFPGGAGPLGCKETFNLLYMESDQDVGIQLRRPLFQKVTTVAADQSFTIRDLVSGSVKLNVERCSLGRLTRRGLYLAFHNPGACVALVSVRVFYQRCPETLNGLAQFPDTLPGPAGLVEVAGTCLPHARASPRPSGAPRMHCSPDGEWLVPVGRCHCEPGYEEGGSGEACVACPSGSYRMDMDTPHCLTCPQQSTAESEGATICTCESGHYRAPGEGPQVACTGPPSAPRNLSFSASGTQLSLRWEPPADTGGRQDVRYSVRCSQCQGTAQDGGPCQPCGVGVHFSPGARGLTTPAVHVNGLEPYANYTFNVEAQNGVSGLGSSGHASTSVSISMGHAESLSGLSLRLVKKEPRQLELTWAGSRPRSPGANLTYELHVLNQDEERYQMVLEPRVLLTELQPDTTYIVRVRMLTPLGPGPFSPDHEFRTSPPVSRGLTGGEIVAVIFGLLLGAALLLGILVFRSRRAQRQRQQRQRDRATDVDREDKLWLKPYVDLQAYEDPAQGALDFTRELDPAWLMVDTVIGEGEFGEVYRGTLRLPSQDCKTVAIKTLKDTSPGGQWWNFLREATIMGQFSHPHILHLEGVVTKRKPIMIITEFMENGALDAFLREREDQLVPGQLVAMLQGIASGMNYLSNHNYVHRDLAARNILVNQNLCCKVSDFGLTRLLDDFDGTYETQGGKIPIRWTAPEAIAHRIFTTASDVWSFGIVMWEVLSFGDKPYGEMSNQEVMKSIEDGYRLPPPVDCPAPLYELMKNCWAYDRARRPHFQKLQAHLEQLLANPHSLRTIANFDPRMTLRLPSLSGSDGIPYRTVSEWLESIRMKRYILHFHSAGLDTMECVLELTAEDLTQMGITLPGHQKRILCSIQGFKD

Structure (SMILES)	inhibition
C/C=C/Cn1cc(-c2cc(OC)c(C(=O)N3CCOCC3)cc2OC)c2cc(C)[nH]c2c1=O	4%

target: D(1A) dopamine receptor (Homo sapiens) (UniProt P21728); assay: Displacement of [3H]-SCH 23390 from human recombinant dopamine D1 receptor at 10 uM by scintillation counting 60 mins analysis relative to control; details: not given
Sequence (P21728 whole entry): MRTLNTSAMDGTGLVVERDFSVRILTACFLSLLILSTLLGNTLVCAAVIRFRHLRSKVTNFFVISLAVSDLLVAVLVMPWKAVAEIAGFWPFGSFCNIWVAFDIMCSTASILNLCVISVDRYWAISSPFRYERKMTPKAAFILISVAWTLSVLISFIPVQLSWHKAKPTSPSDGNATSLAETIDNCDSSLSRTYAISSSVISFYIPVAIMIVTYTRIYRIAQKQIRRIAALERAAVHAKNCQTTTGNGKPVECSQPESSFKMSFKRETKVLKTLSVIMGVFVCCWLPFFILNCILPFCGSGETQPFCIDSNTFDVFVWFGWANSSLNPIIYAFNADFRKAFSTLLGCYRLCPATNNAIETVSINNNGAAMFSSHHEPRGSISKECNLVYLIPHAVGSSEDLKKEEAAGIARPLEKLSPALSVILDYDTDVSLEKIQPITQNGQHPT

Structure (SMILES)	Activity
C/C=C/Cn1cc(-c2cc(OC)c(C(=O)N3CCOCC3)cc2OC)c2cc(C)[nH]c2c1=O	4%

target: D(2) dopamine receptor (Homo sapiens) (UniProt P14416); assay: Displacement of [3H]7-OH-DPAT from human recombinant dopamine D2S receptor at 10 uM after 60 mins by scintillation counting analysis relative to control; details: not given
Sequence (P14416 whole entry): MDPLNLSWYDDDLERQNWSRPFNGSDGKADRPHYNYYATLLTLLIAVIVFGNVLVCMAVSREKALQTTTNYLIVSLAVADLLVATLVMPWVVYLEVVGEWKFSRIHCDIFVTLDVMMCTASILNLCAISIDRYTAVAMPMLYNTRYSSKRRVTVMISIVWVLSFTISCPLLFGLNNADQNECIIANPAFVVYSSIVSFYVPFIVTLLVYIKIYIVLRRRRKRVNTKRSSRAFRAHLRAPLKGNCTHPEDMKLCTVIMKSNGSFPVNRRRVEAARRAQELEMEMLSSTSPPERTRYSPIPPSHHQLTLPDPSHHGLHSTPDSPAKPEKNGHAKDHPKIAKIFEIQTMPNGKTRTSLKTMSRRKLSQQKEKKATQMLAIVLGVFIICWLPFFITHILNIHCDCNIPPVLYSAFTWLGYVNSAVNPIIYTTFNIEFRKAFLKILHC

Structure (SMILES)	Activity
C/C=C/Cn1cc(-c2cc(OC)c(C(=O)N3CCOCC3)cc2OC)c2cc(C)[nH]c2c1=O	13%

target: T2, 5-hydroxytryptamine receptor 1A (Homo sapiens) (UniProt P08908); assay: Displacement of [3H]8-OH-DPAT from recombinant human 5-HT1A receptor at 10 uM after 60 mins by scintillation counting analysis relative to control; details: not given
T2 sequence (whole entry): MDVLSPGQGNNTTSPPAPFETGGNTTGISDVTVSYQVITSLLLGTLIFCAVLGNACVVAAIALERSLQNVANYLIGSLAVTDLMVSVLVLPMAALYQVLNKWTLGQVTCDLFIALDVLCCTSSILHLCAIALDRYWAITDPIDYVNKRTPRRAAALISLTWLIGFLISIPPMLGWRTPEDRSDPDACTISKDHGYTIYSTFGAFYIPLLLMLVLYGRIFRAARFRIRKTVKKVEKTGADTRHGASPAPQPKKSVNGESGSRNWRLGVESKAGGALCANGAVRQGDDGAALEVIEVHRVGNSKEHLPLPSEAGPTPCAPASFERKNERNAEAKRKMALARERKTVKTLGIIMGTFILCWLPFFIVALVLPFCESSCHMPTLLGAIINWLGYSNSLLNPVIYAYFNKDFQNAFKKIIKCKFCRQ

Structure (SMILES)	Activity
C/C=C/Cn1cc(-c2cc(OC)c(C(=O)N3CCOCC3)cc2OC)c2cc(C)[nH]c2c1=O	6%
